Results on eleven compounds are retold here after ChEMBL document CHEMBL5550135, “Targeting the cysteine biosynthesis pathway in microorganisms: Mechanism, structure, and drug discovery” (Eur J Med Chem, 2024).

One test deals with Escherichia coli. Kind of test: Antibacterial activity against Escherichia coli assessed as reduction in bacterial growth by broth microdilution method. Format: functional. (In general: Dilution methods test growth across graded concentrations, often in twofold steps.)
Test [1] concerns Mycobacterium tuberculosis. Kind of test: Antimycobacterial activity against Mycobacterium tuberculosis H37Rv assessed as reduction in bacterial growth incubated for 7 days by resazurin based assay. Format: functional. To be noted: 168 h, time 7 day. A general note: Alamar Blue is a resazurin reagent that responds to reducing activity.
Test [2] can be described thus: Binding affinity to Salmonella Typhimurium ATCC 14028 O-acetylserine sulfhydrylase B assessed as dissociation constant. On the set-up: species or system Salmonella enterica subsp. enterica serovar Typhimurium.
Test [3] in a line: Binding affinity to Salmonella Typhimurium ATCC 14028 O-acetylserine sulfhydrylase A assessed as dissociation constant. On the set-up: species or system Salmonella enterica subsp. enterica serovar Typhimurium.
Test [4] can be described thus: Inhibition of Salmonella enterica Serine acetyltransferase by spectrophotometric analysis.
The test system of another test is Staphylococcus aureus. Kind of test: Antibacterial activity against methicillin-resistant Staphylococcus aureus ATCC 33591 assessed as reduction in bacterial growth incubated for 18 hrs by broth microdilution method. Format: functional.
A short description of test [5]: Inhibition of Methicillin-resistant Staphylococcus aureus ATCC 33591 Serine acetyltransferase.
For test [6], the target named is O-acetylserine sulfhydrylase (Mycobacterium tuberculosis, UniProt P9WP55). The test is described as follows: Inhibition of Mycobacterium tuberculosis ATCC 25618 Cysteine synthase A.
Test [7] in a line: Inhibition of Entamoeba histolytica O-acetylserine sulfhydrylase.
The nature of test [8]: Inhibition of Klebsiella pneumoniae Serine acetyltransferase.

Converted amounts (≈) assume the structure as drawn.

In the case of `O=C(CSc1c[nH]nn1)Nc1ccccc1F`, the MIC with Escherichia coli came to 1.6 µg/mL (≈ 6.34 µM).

On to `Cc1ccc(S(=O)(=O)n2nc(-c3ccccc3)c3c(N)ncnc32)cc1`, for which the MIC in the test with Escherichia coli is 0.57 µg/mL (≈ 1.56 µM).

Turning to `O=C1N=C2C(C(=O)N=C3SC([N+](=O)[O-])=CN32)C(c2ccccc2C(F)(F)F)N1` (stereo unspecified), the MIC in test [1] worked out at 7.6 µM (≈ 3.13 µg/mL).

For the compound `Cc1ccc(C[C@@]2(C(=O)O)C[C@H]2c2ccccc2)cc1`, the Kd in test [2] stood at 490 nM; in test [3] it was 20 nM.

In test [4], `Cc1ccc(Nc2nc(-c3cc(C(=O)O)no3)cs2)cc1` showed an IC50 of 110000 nM.

For the compound `CC1=C2[C@@H](OC1=O)C(=O)[C@H]1[C@]3(C)CCCC(C)(C)[C@H]3CC[C@@]1(O)[C@H]2O`, the MIC in the test with Staphylococcus aureus was determined as 12.5 µg/mL (≈ 35.9 µM). Moreover, the midpoint of inhibition in test [5], the IC50, lay at 71800 nM.

`CC1(C)CCC[C@]2(C)[C@@H]1CC[C@]1(O)[C@H](O)C3=C(CO)C(=O)OC3=C[C@@H]21`: in the test on Staphylococcus aureus, the MIC is 25 µg/mL (≈ 71.7 µM). The same compound had an IC50 in test [5] of 71800 nM.

With `C[C@@H]1O[C@@H](O[C@@H]2C[C@H](c3ccc4c(c3O)C(=O)C3=C(C4=O)[C@@]4(O[C@H]5CC[C@H](O)[C@H](C)O5)C(=O)C[C@](C)(O)C[C@@]4(O)C=C3)O[C@H](C)[C@H]2O)CC[C@@H]1O[C@H]1C[C@@H](O)[C@H](O)[C@@H](C)O1`, the IC50 in [6] was 630 nM; in [7], 310 nM.

As for `Cc1ccc(C[C@@]2(C(=O)O)C[C@H]2c2cccc(-c3cc(O)cc(F)c3)c2)cc1`, the Kd is 610 nM in test [2] and 30 nM in [3].

As to `Cc1cc(C)cc(Nc2nc(-c3cc(C(=O)O)no3)co2)c1`, the IC50 in [4] came out at 4240 nM.

As for `O=c1c(O)c(-c2ccc(O)c(O)c2)oc2cc(O)cc(O)c12` [QUERCETIN], in test [8], half-maximal inhibition (IC50) required 3700 nM.

A word on the MIC: it is the lowest concentration found to suppress growth. The Kd is the concentration at which binding is half-saturated. The term IC50 denotes the concentration that gives 50% inhibition.
